# Data taken from PubChem BioAssay AID2060886 (Molecular Pharmacology Branch, DTP, NCI, 2025).
# System: 653999-131-R-J2-PDC complex spheroids, growth inhibition
# Assay: Anticancer human tumor 653999-131-R-J2-PDC patient-derived lung adenocarcinoma cell line growth inhibition [RAS]
# Conditions: for IC50: curve of first compound; for viability, T/C: stronger effect = lower value
# How it was run: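 Multi-cell-type spheroids: tumor cells plus HUVEC endothelial cells and mesenchymal stem cells. RAS-pathway inhibitors were combined with targeted agents, each dosed in half-log steps down from clinical Cmax, or from 10 microM when Cmax was unknown.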
# [1] = second compound 0.000949 µM, first compound 0.0316 µM
# [2] = second compound 0.000949 µM, first compound 0.1 µM
# [3] = second compound 0.000949 µM, first compound 0.316 µM
# [4] = second compound 0.000949 µM, first compound 1 µM
# [5] = second compound 0.000949 µM, first compound 3.16 µM
# [6] = second compound 0.000949 µM, first compound 10 µM
# [7] = second compound 0.003 µM, first compound 0.0316 µM
# [8] = second compound 0.003 µM, first compound 0.1 µM
# [9] = second compound 0.003 µM, first compound 0.316 µM
# [10] = second compound 0.003 µM, first compound 1 µM
# [11] = second compound 0.003 µM, first compound 3.16 µM
# [12] = second compound 0.003 µM, first compound 10 µM
# [13] = second compound 0.00949 µM, first compound 0.0316 µM
# [14] = second compound 0.00949 µM, first compound 0.1 µM
# [15] = second compound 0.00949 µM, first compound 0.316 µM
# [16] = second compound 0.00949 µM, first compound 1 µM
# [17] = second compound 0.00949 µM, first compound 3.16 µM
# [18] = second compound 0.00949 µM, first compound 10 µM
# [19] = second compound 0.03 µM, first compound 0.0316 µM
# [20] = second compound 0.03 µM, first compound 0.1 µM
# [21] = second compound 0.03 µM, first compound 0.316 µM
# [22] = second compound 0.03 µM, first compound 1 µM
# [23] = second compound 0.03 µM, first compound 3.16 µM
# [24] = second compound 0.03 µM, first compound 10 µM
# [25] = second compound 0.0949 µM, first compound 0.0316 µM
# [26] = second compound 0.0949 µM, first compound 0.1 µM
# [27] = second compound 0.0949 µM, first compound 0.316 µM
# [28] = second compound 0.0949 µM, first compound 1 µM
# [29] = second compound 0.0949 µM, first compound 3.16 µM
# [30] = second compound 0.0949 µM, first compound 10 µM
# [31] = second compound 0.3 µM, first compound 0.0316 µM
# [32] = second compound 0.3 µM, first compound 0.1 µM
# [33] = second compound 0.3 µM, first compound 0.316 µM
# [34] = second compound 0.3 µM, first compound 1 µM
# [35] = second compound 0.3 µM, first compound 3.16 µM
# [36] = second compound 0.3 µM, first compound 10 µM
# 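Further: spheroids exposed to the agents for seven days before the readout.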
compound,measurement,setting,value
C=CC(=O)Nc1cc(Nc2nccc(-c3cn(C)c4ccccc34)n2)c(OC)cc1N(C)CCN(C)C + C=CC(=O)N1CCN(c2nc(OCC3CCCN3C)nc3c(F)c(-c4nc(N)cc(C)c4C(F)(F)F)c(Cl)cc23)C(C)C1,IC50,second compound 0.00316 µM,0.838 µM
same,IC50,second compound 0.01 µM,> 1 µM
same,IC50,second compound 0.0316 µM,> 1 µM
same,IC50,second compound 0.1 µM,> 1 µM
same,IC50,second compound 0.316 µM,0.894 µM
same,IC50,second compound 1 µM,> 1 µM
same,"viability, T/C","second compound 0.00316 µM, first compound 0.00316 µM",104%
same,"viability, T/C","second compound 0.00316 µM, first compound 0.01 µM",90.8%
same,"viability, T/C","second compound 0.00316 µM, first compound 0.0316 µM",95.3%
same,"viability, T/C","second compound 0.00316 µM, first compound 0.1 µM",94.9%
same,"viability, T/C","second compound 0.00316 µM, first compound 0.316 µM",70.3%
same,"viability, T/C","second compound 0.00316 µM, first compound 1 µM",46.3%
same,"viability, T/C","second compound 0.01 µM, first compound 0.00316 µM",94.1%
same,"viability, T/C","second compound 0.01 µM, first compound 0.01 µM",83.7%
same,"viability, T/C","second compound 0.01 µM, first compound 0.0316 µM",79.5%
same,"viability, T/C","second compound 0.01 µM, first compound 0.1 µM",100%
same,"viability, T/C","second compound 0.01 µM, first compound 0.316 µM",57.9%
same,"viability, T/C","second compound 0.01 µM, first compound 1 µM",56%
same,"viability, T/C","second compound 0.0316 µM, first compound 0.00316 µM",113%
same,"viability, T/C","second compound 0.0316 µM, first compound 0.01 µM",100%
same,"viability, T/C","second compound 0.0316 µM, first compound 0.0316 µM",95.3%
same,"viability, T/C","second compound 0.0316 µM, first compound 0.1 µM",69.6%
same,"viability, T/C","second compound 0.0316 µM, first compound 0.316 µM",59.2%
same,"viability, T/C","second compound 0.0316 µM, first compound 1 µM",59.4%
same,"viability, T/C","second compound 0.1 µM, first compound 0.00316 µM",108%
same,"viability, T/C","second compound 0.1 µM, first compound 0.01 µM",86.8%
same,"viability, T/C","second compound 0.1 µM, first compound 0.0316 µM",89.5%
same,"viability, T/C","second compound 0.1 µM, first compound 0.1 µM",77.5%
same,"viability, T/C","second compound 0.1 µM, first compound 0.316 µM",69.6%
same,"viability, T/C","second compound 0.1 µM, first compound 1 µM",52.7%
same,"viability, T/C","second compound 0.316 µM, first compound 0.00316 µM",100%
same,"viability, T/C","second compound 0.316 µM, first compound 0.01 µM",107%
same,"viability, T/C","second compound 0.316 µM, first compound 0.0316 µM",98.8%
same,"viability, T/C","second compound 0.316 µM, first compound 0.1 µM",70.8%
same,"viability, T/C","second compound 0.316 µM, first compound 0.316 µM",67.7%
same,"viability, T/C","second compound 0.316 µM, first compound 1 µM",46%
same,"viability, T/C","second compound 1 µM, first compound 0.00316 µM",105%
same,"viability, T/C","second compound 1 µM, first compound 0.01 µM",104%
same,"viability, T/C","second compound 1 µM, first compound 0.0316 µM",94.2%
same,"viability, T/C","second compound 1 µM, first compound 0.1 µM",67%
same,"viability, T/C","second compound 1 µM, first compound 0.316 µM",58.6%
same,"viability, T/C","second compound 1 µM, first compound 1 µM",55.9%
CC(=O)OC12COC1CC(O)C1(C)C(=O)C(O)C3=C(C)C(OC(=O)C(O)C(NC(=O)OC(C)(C)C)c4ccccc4)CC(O)(C(OC(=O)c4ccccc4)C21)C3(C)C (stereo not drawn) + CCn1c(-c2cccnc2C(C)OC)c2c3cc(ccc31)N1CCOC(CC(NC(=O)C(C(C)C)N(C)C(=O)C3(F)CCN(C(=O)C#CC(C)(C)N(C)C)CC3)C(=O)N3CCCC(N3)C(=O)OCC(C)(C)C2)C1,IC50,second compound 0.000949 µM,> 10 µM
same,IC50,second compound 0.003 µM,> 10 µM
same,IC50,second compound 0.00949 µM,> 10 µM
same,IC50,second compound 0.03 µM,> 10 µM
same,IC50,second compound 0.0949 µM,> 10 µM
same,IC50,second compound 0.3 µM,< 0.0316 µM
same,"viability, T/C",[1],52.5%
same,"viability, T/C",[2],52.7%
same,"viability, T/C",[3],57.8%
same,"viability, T/C",[4],62.2%
same,"viability, T/C",[5],62.3%
same,"viability, T/C",[6],66.6%
same,"viability, T/C",[7],59.5%
same,"viability, T/C",[8],53.2%
same,"viability, T/C",[9],53.8%
same,"viability, T/C",[10],59.7%
same,"viability, T/C",[11],70.7%
same,"viability, T/C",[12],76.9%
same,"viability, T/C",[13],60.5%
same,"viability, T/C",[14],59.7%
same,"viability, T/C",[15],53.1%
same,"viability, T/C",[16],58.7%
same,"viability, T/C",[17],66.3%
same,"viability, T/C",[18],67.2%
same,"viability, T/C",[19],57.6%
same,"viability, T/C",[20],59.9%
same,"viability, T/C",[21],56.1%
same,"viability, T/C",[22],54.5%
same,"viability, T/C",[23],68%
same,"viability, T/C",[24],64.2%
same,"viability, T/C",[25],53.6%
same,"viability, T/C",[26],55%
same,"viability, T/C",[27],52.3%
same,"viability, T/C",[28],58.5%
same,"viability, T/C",[29],61%
same,"viability, T/C",[30],65.1%
same,"viability, T/C",[31],45.6%
same,"viability, T/C",[32],49.8%
same,"viability, T/C",[33],41%
same,"viability, T/C",[34],52.1%
same,"viability, T/C",[35],53.7%
same,"viability, T/C",[36],60.3%
CC1(O)CCCC1n1c(=O)c(C(F)F)cc2cnc(NC3CCN(S(C)(=O)=O)CC3)nc21 (stereo not drawn) + CCn1c(-c2cc(N3CCN(C)CC3)cnc2C(C)OC)c2c3cc(ccc31)-c1csc(n1)CC(NC(=O)C1CC1C)C(=O)N1CCCC(N1)C(=O)OCC(C)(C)C2,IC50,second compound 0.000949 µM,8.4 µM
same,IC50,second compound 0.003 µM,0.0579 µM
same,IC50,second compound 0.00949 µM,< 0.0316 µM
same,IC50,second compound 0.03 µM,< 0.0316 µM
same,IC50,second compound 0.0949 µM,< 0.0316 µM
same,IC50,second compound 0.3 µM,< 0.0316 µM
same,"viability, T/C",[1],67.8%
same,"viability, T/C",[2],48.4%
same,"viability, T/C",[3],57.4%
same,"viability, T/C",[4],49%
same,"viability, T/C",[5],73%
same,"viability, T/C",[6],37.7%
same,"viability, T/C",[7],52.4%
same,"viability, T/C",[8],49.5%
same,"viability, T/C",[9],40.1%
same,"viability, T/C",[10],49.9%
same,"viability, T/C",[11],47.2%
same,"viability, T/C",[12],38.5%
same,"viability, T/C",[13],43%
same,"viability, T/C",[14],28.5%
same,"viability, T/C",[15],28.5%
same,"viability, T/C",[16],28.1%
same,"viability, T/C",[17],39%
same,"viability, T/C",[18],29.1%
same,"viability, T/C",[19],36.6%
same,"viability, T/C",[20],23.9%
same,"viability, T/C",[21],25.8%
same,"viability, T/C",[22],24.9%
same,"viability, T/C",[23],30.7%
same,"viability, T/C",[24],20%
same,"viability, T/C",[25],27.2%
same,"viability, T/C",[26],20.3%
same,"viability, T/C",[27],18.8%
same,"viability, T/C",[28],19.4%
same,"viability, T/C",[29],26.7%
same,"viability, T/C",[30],24.7%
same,"viability, T/C",[31],19.2%
same,"viability, T/C",[32],18.5%
same,"viability, T/C",[33],25.2%
same,"viability, T/C",[34],20.8%
same,"viability, T/C",[35],20.3%
same,"viability, T/C",[36],21%
CC1(O)CCCC1n1c(=O)c(C(F)F)cc2cnc(NC3CCN(S(C)(=O)=O)CC3)nc21 (stereo not drawn) + CCn1c(-c2cccnc2C(C)OC)c2c3cc(ccc31)N1CCOC(CC(NC(=O)C(C(C)C)N(C)C(=O)C3(F)CCN(C(=O)C#CC(C)(C)N(C)C)CC3)C(=O)N3CCCC(N3)C(=O)OCC(C)(C)C2)C1,IC50,second compound 0.000949 µM,> 10 µM
same,IC50,second compound 0.003 µM,6.61 µM
same,IC50,second compound 0.00949 µM,6.6 µM
same,IC50,second compound 0.03 µM,> 10 µM
same,IC50,second compound 0.0949 µM,6.91 µM
same,IC50,second compound 0.3 µM,6.62 µM
same,"viability, T/C",[1],88.3%
same,"viability, T/C",[2],71.1%
same,"viability, T/C",[3],67.8%
same,"viability, T/C",[4],59.2%
same,"viability, T/C",[5],81.2%
same,"viability, T/C",[6],47.2%
same,"viability, T/C",[7],86.8%
same,"viability, T/C",[8],71.4%
same,"viability, T/C",[9],73.4%
same,"viability, T/C",[10],62.5%
same,"viability, T/C",[11],71.7%
same,"viability, T/C",[12],39.6%
same,"viability, T/C",[13],97.2%
same,"viability, T/C",[14],69.3%
same,"viability, T/C",[15],78.6%
same,"viability, T/C",[16],79.8%
same,"viability, T/C",[17],79.5%
same,"viability, T/C",[18],33.4%
same,"viability, T/C",[19],92.6%
same,"viability, T/C",[20],62.1%
same,"viability, T/C",[21],60.9%
same,"viability, T/C",[22],63.8%
same,"viability, T/C",[23],83.3%
same,"viability, T/C",[24],42.5%
same,"viability, T/C",[25],86.8%
same,"viability, T/C",[26],73.4%
same,"viability, T/C",[27],64.4%
same,"viability, T/C",[28],65.4%
same,"viability, T/C",[29],85.9%
same,"viability, T/C",[30],38.1%
same,"viability, T/C",[31],84.3%
same,"viability, T/C",[32],62.3%
same,"viability, T/C",[33],72%
same,"viability, T/C",[34],68.9%
same,"viability, T/C",[35],88.9%
same,"viability, T/C",[36],36.1%
